# Assay results published in DBAASP.
# Where “and” joins values, the source holds several entries; their conditions need not be identical. Equal values may be shown once.
# Tests used:
# Assay in all cases: ≥ marks a high value that may be exact or a test limit, other limits are often not marked, values filed in µg/mL are converted to µM
# [1] = test system: Candida albicans NCPF 1467
# [2] = test system: Escherichia coli NCTC 10418
# [3] = test system: Staphylococcus aureus NCTC 10788
# [4] = test system: Bacillus subtilis CMCC 63501
# [5] = test system: Escherichia coli ATCC 25922
# [6] = test system: Escherichia coli UB1005
# [7] = test system: Pseudomonas aeruginosa ATCC 27853
# [8] = test system: Salmonella enterica subsp. enterica serovar Pullorum C79-13
# [9] = test system: Salmonella typhimurium ATCC 7731
# [10] = test system: Staphylococcus aureus ATCC 29213
# [11] = test system: Staphylococcus aureus ATCC 43300
# [12] = test system: Staphylococcus epidermidis ATCC 12228
# [13] = test system: Bacillus subtilis ATCC 6633
# [14] = test system: Candida albicans ATCC 20032
# [15] = test system: Staphylococcus aureus ATCC 25923
# [16] = test system: Bacillus subtilis
# [17] = test system: Escherichia coli
# [18] = test system: Klebsiella pneumoniae
# [19] = test system: Micrococcus luteus
# [20] = test system: Proteus mirabilis
# [21] = test system: Pseudomonas aeruginosa
# [22] = test system: Salmonella typhimurium
# [23] = test system: Shigella dysenteriae
# [24] = test system: Staphylococcus aureus
# [25] = test system: Staphylococcus epidermidis
# [26] = test system: Clavibacter michiganensis subsp. michiganensis DSM 46294
# [27] = test system: Pectobacterium carotovorum subsp. carotovorum DSM 30168
# [28] = test system: Pseudomonas corrugata DSM 7228
# [29] = test system: Pseudomonas syringae pv. syringae DSM 10604
# [30] = test system: Pseudomonas syringae pv. tomato DC3000
# [31] = test system: Xanthomonas vesicatoria DSM 50861
# [32] = test system: Salmonella enterica subsp. enterica serovar Typhimurium ATCC 14028
structure (smiles),measurement,setting,value
CC[C@H](C)[C@H](NC(=O)[C@H](C)NC(=O)[C@H](CCCCN)NC(=O)[C@@H]1CCCN1C(=O)[C@@H](NC(=O)[C@H](CC(C)C)NC(=O)[C@H](CCCCN)NC(=O)[C@H](Cc1ccccc1)NC(=O)[C@H](CC(C)C)NC(=O)[C@@H](N)Cc1ccccc1)[C@@H](C)CC)C(=O)N[C@@H](CCCCN)C(=O)NCC(=O)N[C@@H](CC(C)C)C(=O)N[C@H](C(=O)N[C@@H](CCCCN)C(=O)N[C@@H](C)C(=O)N[C@@H](Cc1ccccc1)C(=O)N[C@H](C=O)CCCCN)[C@@H](C)CC [FLFKLIPKAIKGLIKAFK],MIC,[1],4 µM
same,MIC,[2],8 µM
same,MIC,[3],4 µM
CC(C)C[C@H](NC(=O)[C@H](CCCCN)NC(=O)[C@H](CCCCN)NC(=O)[C@H](C)NC(=O)[C@@H](NC(=O)[C@H](CCCCN)NC(=O)[C@H](CO)NC(=O)[C@H](CC(C)C)NC(=O)[C@@H](N)Cc1c[nH]c2ccccc12)[C@@H](C)O)C(N)=O [WLSKTAKKL],MIC,[4],≥ 128 µM
same,MIC,[5],> 128 µM
same,MIC,[6],≥ 128 µM
same,MIC,[7],> 128 µM
same,MIC,[8],≥ 128 µM
same,MIC,[9],≥ 128 µM
same,MIC,[10],> 128 µM
same,MIC,[11],> 128 µM
same,MIC,[12],> 128 µM
CC[C@H](C)[C@H](N)C(=O)N[C@@H](CC(C)C)C(=O)NCC(=O)N1CCC[C@H]1C(=O)N[C@H](C(=O)N[C@H](C(=O)N[C@@H](CO)C(=O)N[C@H](C(=O)N[C@H](C(=O)NCC(=O)N[C@@H](CC(N)=O)C(=O)N[C@H](C(=O)N[C@@H](CC(C)C)C(=O)NCC(=O)NCC(=O)N[C@@H](CC(C)C)C(=O)N[C@@H](CC(C)C)C(=O)N[C@@H](CCCCN)C(=O)N[C@@H](CC(N)=O)C(=O)N[C@@H](CC(C)C)C(N)=O)C(C)C)[C@@H](C)CC)[C@@H](C)O)[C@@H](C)CC)C(C)C [ILGPVISTIGNVLGGLLKNL],MIC,[13],≥ 50.2 µM
same,MIC,[14],≥ 50.2 µM
same,MIC,[5],> 50.2 µM
same,MIC,[15],> 50.2 µM
CC(C)C[C@H](NC(=O)[C@@H](NC(=O)[C@H](CCCCN)NC(=O)[C@H](CC(C)C)NC(=O)[C@H](C)NC(=O)[C@@H](NC(=O)[C@H](CCCCN)NC(=O)[C@H](Cc1ccccc1)NC(=O)[C@H](CC(C)C)NC(=O)[C@H](C)NC(=O)[C@H](CCCCN)NC(=O)[C@H](CC(C)C)NC(=O)[C@@H](N)Cc1ccccc1)C(C)C)C(C)C)C(=O)O [FLKALFKVALKVL],MIC,[16],16.8 µM
same,MIC,[17],33.6 µM
same,MIC,[18],67.1 µM
same,MIC,[19],4.23 µM
same,MIC,[20],≥ 134 µM
same,MIC,[21],> 134 µM
same,MIC,[22],≥ 134 µM
same,MIC,[23],≥ 33.6 µM
same,MIC,[24],2.08 µM
same,MIC,[25],2.08 µM
CC(C)C[C@@H]1NC(=O)[C@H](CO)NC(=O)[C@H](Cc2ccc(O)cc2)NC(=O)[C@H](CCC(=O)O)NC(=O)[C@H](Cc2ccccc2)NC(=O)[C@H](C)NC(=O)[C@H](Cc2ccccc2)NC(=O)[C@@H]2CSSC[C@@H](C(=O)N[C@H](C(=O)N3CCC[C@H]3C(=O)N[C@@H](CC(N)=O)C(=O)N[C@H](C(=O)N[C@@H](Cc3ccccc3)C(=O)O)[C@@H](C)O)C(C)C)NC(=O)[C@@H]3CSSC[C@H](NC(=O)CNC(=O)[C@H](Cc4c[nH]c5ccccc45)NC(=O)[C@@H](NC(=O)[C@H](C)NC(=O)[C@@H](N)Cc4ccccc4)C(C)C)C(=O)N[C@@H](C)C(=O)N[C@@H](CC(=O)O)C(=O)N[C@@H](Cc4ccc(O)cc4)C(=O)N[C@@H](CCCN=C(N)N)C(=O)NCC(=O)N[C@@H](Cc4ccc(O)cc4)C(=O)N[C@@H](CSSC[C@H](NC(=O)CNC(=O)[C@H](CCCCN)NC(=O)[C@@H]4CCCN4C(=O)CNC1=O)C(=O)N[C@@H]([C@@H](C)O)C(=O)N[C@@H](CCC(=O)O)C(=O)NCC(=O)N[C@@H](Cc1ccc(O)cc1)C(=O)N[C@@H](C(C)C)C(=O)N3)C(=O)N[C@@H](CCCN=C(N)N)C(=O)N[C@@H](C)C(=O)N[C@@H](C)C(=O)N2 [FAVWGCADYRGYCRAACFAFEYSLGPKGCTEGYVCCVPNTF],MIC,[13],29.8 µM
same,MIC,[14],≥ 44.2 µM
same,MIC,[5],35.3 µM
same,MIC,[15],14.4 µM
CC(C)C[C@H](NC(=O)[C@H](C)N)C(=O)N[C@@H](Cc1ccccc1)C(=O)N[C@@H](CCCCN)C(=O)N[C@H](C(=O)N[C@@H](C)C(=O)N[C@@H](CO)C(=O)N[C@@H](CCCCN)C(=O)N[C@H](C(=O)N[C@@H](CC(C)C)C(=O)N1CCC[C@H]1C(=O)N[C@@H](CO)C(=O)N[C@H](C(=O)O)C(C)C)C(C)C)C(C)C [ALFKVASKVLPSV],MIC,[16],≥ 147 µM
same,MIC,[17],> 147 µM
same,MIC,[18],> 147 µM
same,MIC,[19],≥ 147 µM
same,MIC,[20],≥ 147 µM
same,MIC,[21],> 147 µM
same,MIC,[22],≥ 147 µM
same,MIC,[23],≥ 147 µM
same,MIC,[24],> 147 µM
same,MIC,[25],≥ 147 µM
CC[C@H](C)[C@H](N)C(=O)N[C@@H](CO)C(=O)NCC(=O)N1CCC[C@H]1C(=O)N[C@H](C(=O)N[C@@H](CC(C)C)C(=O)NCC(=O)N[C@@H](CC(C)C)C(=O)N[C@H](C(=O)NCC(=O)N[C@@H](CC(N)=O)C(=O)N[C@@H](C)C(=O)N[C@@H](CC(C)C)C(=O)NCC(=O)NCC(=O)N[C@@H](CC(C)C)C(=O)N[C@H](C(=O)N[C@@H](CCCCN)C(=O)N[C@@H](CCCCN)C(=O)N[C@H](C(N)=O)[C@@H](C)CC)[C@@H](C)CC)C(C)C)C(C)C [ISGPVLGLVGNALGGLIKKI],MIC,[13],≥ 52.1 µM
same,MIC,[14],≥ 52.1 µM
same,MIC,[5],> 52.1 µM
same,MIC,[15],> 52.1 µM
CC[C@H](C)[C@H](NC(=O)[C@H](CC(C)C)NC(=O)[C@H](CCCN=C(N)N)NC(=O)[C@H](CCCCN)NC(=O)[C@H](CC(C)C)NC(=O)[C@H](CC(C)C)NC(=O)[C@H](CCCCN)NC(=O)[C@H](CCCCN)NC(=O)[C@H](CCCN=C(N)N)NC(=O)[C@H](CCCCN)NC(=O)[C@H](CCCCN)NC(=O)[C@@H](N)CCCN=C(N)N)C(N)=O [RKKRKKLLKRLI],MIC,[26],3.16 µM
same,MIC,[27],6.33 µM
same,MIC,[28],0.316 µM
same,MIC,[29],0.158 µM
same,MIC,[30],6.33 µM
same,MIC,[31],6.33 µM
CC[C@H](C)[C@H](NC(=O)CNC(=O)[C@H](C)NC(=O)[C@H](C)NC(=O)[C@@H](NC(=O)[C@@H](NC(=O)[C@H](CC(N)=O)NC(=O)[C@@H](NC(=O)[C@H](C)NC(=O)[C@@H](NC(=O)[C@@H]1CCCN1C(=O)[C@@H](NC(=O)[C@H](CC(C)C)NC(=O)[C@@H]1CCCN1C(=O)[C@H](Cc1c[nH]c2ccccc12)NC(=O)[C@H](Cc1ccccc1)NC(=O)[C@H](CCCN=C(N)N)NC(=O)[C@@H](N)CCCCN)C(C)C)C(C)C)[C@@H](C)CC)[C@@H](C)O)C(C)C)C(=O)N[C@@H](CC(N)=O)C(=O)N[C@@H](CC(C)C)C(=O)N[C@@H](Cc1ccc(O)cc1)C(=O)N[C@@H](CCCCN)C(=O)N[C@@H](C)C(=O)N[C@H](C(=O)N[C@@H](CCCN=C(N)N)C(=O)N[C@@H](CCCN=C(N)N)C(=O)N[C@@H](CCCCN)C(N)=O)[C@@H](C)CC [KRFWPLVPVAINTVAAGINLYKAIRRK],MIC,[4],2 µM
same,MIC,[5],2 µM and 4 µM
same,MIC,[6],4 µM
same,MIC,[7],4 µM and > 2 µM
same,MIC,[32],4 µM
same,MIC,[9],4 µM
same,MIC,[10],4 µM
same,MIC,[12],2 µM
